# Experiments:
# Assay type in all cases: cell-based
# K562/vcr = assay: Reversal of drug resistance, MTT assay, 48 h
# Protocol: To illustrate a method for reversal of drug resistance by application of Schisandrin B, cell lines K562/adr, K562/vcr (X. […] H. […] Cells were cultured in RPMI-1640 medium containing 10% fetal calf serum. […] The logarithmic growing cells were seeded into a 96 well plate (20,000 cells/well). Specific anticancer drugs (set forth in Table 1) and Schisandrin B in combination were added into the wells containing the select cell lines. […] Cell viability was assessed by MTT assays as described in X.
# [1] = tested on: human leukemia MDR cell line K562/adr; assay: Reversal of drug resistance of K562/adr, MTT assay, 72 h; conditions: K562/adr
# Protocol: (§1) In this embodiment, the IC50 of anticancer drugs in the presence or absence of Schisandrin B toward MDR cells was determined.
# (§2) MTT assays were carried out in triplicate against human leukemia MDR cell line K562/adr and human epidermoid carcinoma MDR cell line KBV200. MTT assays as described previously (X. Hu, et al., Chemotherapy 41:296-305 (1995)) were used to determine the cytotoxicity of each anticancer drug in the presence or absence of Schisandrin B or verapmil.
# Cells were treated with specific anticancer drugs as set forth therein. “Ctrl” represents control cells treated with anticancer drugs in the absence of Schisandrin B or verapamil. “SchB” represents cells treated with anticancer drugs in the presence of Schisandrin B (10 μg/ml).
# [2] = tested on: human epidermoid carcinoma MDR cell line KBV200; assay: Reversal of drug resistance of KBV200, MTT assay, 72 h
# Protocol: as §1, §2
# Cells were treated with specific anticancer drugs as set forth therein. […] “SchB” represents cells treated with anticancer drugs in the presence of Schisandrin B (10 μg/ml).
compound,measurement,setting,value
"CC[C@]1(O)C[C@H]2CN(CCc3c([nH]c4ccccc34)[C@@](C(=O)OC)(c3cc4c(cc3OC)N(C=O)[C@H]3[C@@](O)(C(=O)OC)[C@H](OC(C)=O)[C@]5(CC)C=CCN6CC[C@]43[C@@H]65)C2)C1 [Vincristine, vincristine]",IC50,"K562/vcr; Homo sapiens, anticancer drug toward K562/vcr in the absence of Schisandrin B, 48 h, read-out: IC50 Control",> 20 µg/mL
same,RF (Reversal Folds),K562/vcr; IC50 in the absence of Schisandrin B divided by IC50 in the presence of Schisandrin B (10 μg/ml),>14.9
same,IC50 Schisandrin B,"K562/vcr; anticancer drug toward K562/vcr in the presence of Schisandrin B (10 μg/ml), 48 h",1.34 ± 0.08 µg/mL
same,IC50,"[1]; Homo sapiens, anticancer drug alone, 72 h, read-out: IC50 Control",0.916 ± 0.238 µg/mL
same,RF (Schisandrin B),[1]; IC50 in the absence divided by IC50 in the presence of Schisandrin B (10 μg/ml),6.2
same,RF (verapamil),[1]; IC50 in the absence divided by IC50 in the presence of verapamil (6 μg/ml),10.51
same,IC50 Schisandrin B,[1]; anticancer drug in the presence of Schisandrin B (10 μg/ml),0.1486 ± 0.0554 µg/mL
same,IC50 verapamil,[1]; anticancer drug in the presence of verapamil (6 μg/ml),0.0872 ± 0.0236 µg/mL
same,IC50,"[2]; Homo sapiens, anticancer drug alone, KBV200, 72 h, read-out: IC50 Control",> 20 µg/mL
same,RF (Schisandrin B),"[2]; IC50 in the absence / IC50 in the presence of Schisandrin B (10 μg/ml), KBV200",127.2
same,RF (verapamil),"[2]; IC50 in the absence / IC50 in the presence of verapamil (6 μg/ml), KBV200",20.26
same,IC50 Schisandrin B,"[2]; anticancer drug in the presence of Schisandrin B (10 μg/ml), KBV200",0.1572 ± 0.0946 µg/mL
same,IC50 verapamil,"[2]; anticancer drug in the presence of verapamil (6 μg/ml), KBV200",0.9872 ± 0.01555 µg/mL

# Reference: patent US20050119337A1, “Methods of application of Schisandrin B in the preparation of anticancer medications” (priority 2003, published 2005)
